Reference: patent publication US10266544B2, “Aryl substituted aminomethyl spectinomycin analogs as antibacterial agents” (ST. JUDE CHILDREN'S RESEARCH HOSPITAL, INC., priority 2013, dated 2019)
Structures can show the parent of a compound that is named as a salt. Where two headings read alike, the source gives them in different places.

Experiments:
Type in all cases: cell-based
[1] = test system: Burkholderia cepacia (ATCC 25416); assay: MIC determination, microbroth dilution; details: Burkholderia cepacia
[2] = test system: Escherichia coli (ATCC 700926); assay: MIC determination, microbroth dilution
[3] = test system: M. tuberculosis clinical isolates; assay: microbe, parasite or virus in culture; details: Mycobacterium tuberculosis, H37RV, read-out: MIC H37Rv
[4] = test system: Streptococcus pneumoniae (R6); assay: MIC determination, microbroth dilution; details: Streptococcus pneumoniae (R6); read-out: MIC S. pn.
[5] = test system: acinetobacter baumannii (ATCC 19606); assay: MIC determination, microbroth dilution; details: ATCC19606
[6] = test system: Staphylococcus aureus (ATCC 29213); assay: MIC determination, microbroth dilution; details: ATCC29213; Staphylococcus aureus (ATCC 29213); read-out: MIC S.a.
[7] = test system: Stenotrophomonas maltophilia (ATCC 13637); assay: MIC determination, microbroth dilution
[8] = test system: Klebsiella pneumoniae (ATCC 33495); assay: MIC determination, microbroth dilution; details: ATCC33495
[9] = test system: Pseudomonas aeruginosa (PA01); assay: MIC determination, microbroth dilution
[10] = test system: MRSA, Staphylococcus aureus (NRS70); assay: MIC determination, microbroth dilution; details: read-out: MIC MRSA
[11] = test system: Proteus mirabilis (ATCC 25933); assay: MIC determination, microbroth dilution; details: ATCC25933
[12] = test system: Enterococcus faecalis (ATCC 33186); assay: MIC determination, microbroth dilution
E. coli K12 ΔtolC = assay: microbe, parasite or virus in culture; details: Escherichia coli, read-out: MIC E.c. Δtolc
[13] = test system: Bacillus subtilis (ATCC 23857); assay: MIC determination, microbroth dilution; details: ATCC23857; Bacillus subtilis (ATCC 23857); read-out: MIC B.s.
[14] = test system: Bacillus anthracis, Sterne 34F2; assay: microbe, parasite or virus in culture; details: STERNE34F2, read-out: MIC B.a.
[15] = test system: Proteus vulgaris (ATCC 33420); assay: MIC determination, microbroth dilution; details: ATCC33420
[16] = test system: Streptococcus pyogenes (ATCC 700294); assay: MIC determination, microbroth dilution
[17] = test system: Legionella pneumophila (ATCC 33153); assay: microbe, parasite or virus in culture; details: ATCC33153, 72 h, read-out: Zone of inhibition L.p.
[18] = test system: Neisseria gonorrhoeae (ATCC 49226); assay: Agar MIC determination (Alamar Blue); details: ATCC49226, agar MIC, read-out: MIC N.g.
[19] = test system: Neisseria meningitides (ATCC 13077); assay: Disc diffusion assay; details: ATCC13077, 4 μg per disc, read-out: Zone of inhibition N.m.
[20] = test system: Haemophilus influenza (ATCC 49247); assay: microbe, parasite or virus in culture; details: ATCC49247; Haemophilus influenza; 4 μg per disc; range of at least two experiments; read-out: Zone of inhibition H.i.
Moraxella catarrhalis = assay: MIC determination (Table 6)
[21] = test system: Neisseria gonorrhoeae (ATCC 49226); assay: Disc diffusion assay; details: ATCC49226, 4 μg per disc, read-out: Zone of inhibition N.g.
Bacillus anthracis = assay: microbe, parasite or virus in culture; details: read-out: MIC B.a.
Listeria monocytogenes = assay: MIC determination (Table 6)
[22] = ATCC25416, read-out: MIC B.c., Burkholderia cepacia (ATCC 25416)
[23] = ATCC13637, Stenotrophomonas maltophilia (ATCC 13637), read-out: MIC S.m.
[24] = ATCC33186, Enterococcus faecalis (ATCC 33186), read-out: MIC E.f.
[25] = ATCC700294, Streptococcus pyogenes (ATCC 700294), read-out: MIC S. py.
[26] = ATCC700926, Escherichia coli (ATCC 700926), read-out: MIC E.c.
[27] = ATCC25416, read-out: MIC B.c., Burkholderia cepacia, Table 6

Structure (SMILES)	MIC [1, 22] [µg/mL]	MIC [3] [µg/mL]	MIC [4] [µg/mL]	MIC [5] [µg/mL]	MIC [6] [µg/mL]	MIC [8] [µg/mL]	MIC [9] [µg/mL]	MIC ([10]; Staphylococcus aureus (NRS70)) [µg/mL]	MIC [11] [µg/mL]	MIC [12, 24] [µg/mL]	MIC (E. coli K12 ΔtolC) [µg/mL]	MIC [13] [µg/mL]	MIC [14] [µg/mL]	MIC [15] [µg/mL]	MIC [16, 25] [µg/mL]	zone of inhibition at 4 µg/disc [17] [mm]	MIC [18] [µg/mL]	MIC [2, 26] [µg/mL]	zone of inhibition at 4 µg/disc [19] [mm]	zone of inhibition at 4 µg/disc [20] [mm]	further results
CN[C@@H]1[C@H](O)[C@H](NC)[C@H]2O[C@]3(O)[C@H](O[C@@H]2[C@H]1O)O[C@H](C)C[C@]3(O)CNCc1ccc(OC(F)(F)F)cc1 (stereo in doubt) [compound 26, 3′-(S)-3′-[(4-trifluoromethoxyl)benzylaminomethyl)]dihydrospectinomycin Trihydrochloride]	> 200	100	> 200	50 to 100	≥ 200	100	> 200	> 200	> 200	> 200	6.3	100 to 200	≥ 200	> 200	> 200	8	50 to 100				MIC ([2]; Escherichia coli, ATCC700926, read-out: MIC E.c.): 50 µg/mL; MIC [7, 23]: 50 µg/mL
CN[C@@H]1[C@H](O)[C@H](NC)[C@H]2O[C@]3(O)[C@H](O[C@@H]2[C@H]1O)O[C@H](C)C[C@]3(O)CNCc1ccc(F)cc1 [compound 28, 3′-(S)-3′-[(4-fluoro)benzylaminomethyl)]dihydrospectinomycin Trihydrochloride]	> 200	200	≥ 200	> 200	> 200	> 200		> 200		> 200	≥ 200		> 200		100 to 200	0	200	> 200	0	0	
CN[C@@H]1[C@H](O)[C@H](NC)[C@H]2O[C@]3(O)[C@H](O[C@@H]2[C@H]1O)O[C@H](C)C[C@@]3(O)CNCc1cccs1 [compound 17, 3′-(R)-3′-(2-thiophenylmethylaminomethyl)dihydrospectinomycin Trihydrochloride]	> 200	25	12.5	> 200	50	200	≥ 200	100 to 200	> 200	50	6.3 to 12.5	25	50	200		41	50	50	15	13	MIC [1, 27]: > 200 µg/mL; MIC [7, 23]: 6.3 µg/mL; MIC (Moraxella catarrhalis): 3.1 µg/mL; zone of inhibition at 4 µg/disc [21]: 11 mm; MIC (Bacillus anthracis): 50 µg/mL; MIC ([16]; Streptococcus pyogenes, ATCC700294, read-out: MIC S. py.): 6.3 to 12.5 µg/mL; MIC (Listeria monocytogenes): 12.5 µg/mL
CN[C@@H]1[C@H](O)[C@H](NC)[C@H]2O[C@]3(O)[C@H](O[C@@H]2[C@H]1O)O[C@H](C)C[C@@]3(O)CNCc1ccc(Cl)cc1 [compound 18, 3′-(R)-3′-(4-Chlorobenzylaminomethyl)dihydrospectinomycin Trihydrobromide]	100 to 200	12.5	1.6 to 3.1	> 200	25 to 50	200	200		200		3.1 to 6.3	3.1	25	100 to 200	0.8 to 1.6	21	25	12.5 to 25	16 to 18	15 to 16	MIC [1, 27]: 100 to 200 µg/mL; MIC [7, 23]: 25 µg/mL; MIC ([10]; Staphylococcus aureus): 12.5 to 25 µg/mL; MIC (Moraxella catarrhalis): 0.8 µg/mL; MIC (Bacillus anthracis): 25 µg/mL; MIC ([12]; Enterococcus faecalis, ATCC33186, read-out: MIC E.f.): 6.3 to 12.5 µg/mL; MIC (Listeria monocytogenes): 6.3 µg/mL
CN[C@@H]1[C@H](O)[C@H](NC)[C@H]2O[C@]3(O)[C@H](O[C@@H]2[C@H]1O)O[C@H](C)C[C@@]3(O)CNCc1ccco1 [compound 8, 3′-(R)-3′-(2-furanylmethylaminomethyl)dihydrospectinomycin Trihydrochloride]	≥ 200	25	12.5	≥ 200	50	200	200	200	> 200	50	6.3 to 12.5	12.5	50	> 200	12.5 to 25	41	50	50	10	9	MIC [1, 27]: ≥ 200 µg/mL; MIC ([7]; Stenotrophomonas maltophilia, ATCC13637, read-out: MIC S.m.): 6.3 to 12.5 µg/mL; MIC (Moraxella catarrhalis): 6.3 µg/mL; zone of inhibition at 4 µg/disc [21]: 8 mm; MIC (Bacillus anthracis): 100 µg/mL; MIC (Listeria monocytogenes): 25 µg/mL
CN[C@@H]1[C@H](O)[C@H](NC)[C@H]2O[C@]3(O)[C@H](O[C@@H]2[C@H]1O)O[C@H](C)C[C@@]3(O)CNCc1nccs1 [compound 19, 3′-(R)-3′-(2-thiazolylmethyl)aminomethyldihydrospectinomycin Tetrahydrobromide]	> 200	100	12.5	> 200	100	> 200	> 200	> 200	> 200	50	12.5 to 25	100	100	> 200	12.5	39	100	200	13	10	MIC [1, 27]: > 200 µg/mL; MIC [7, 23]: 25 to 50 µg/mL; MIC (Moraxella catarrhalis): 12.5 µg/mL; zone of inhibition at 4 µg/disc [21]: 9 mm; MIC (Bacillus anthracis): 100 µg/mL; MIC (Listeria monocytogenes): 25 µg/mL
CN[C@@H]1[C@H](O)[C@H](NC)[C@H]2O[C@]3(O)[C@H](O[C@@H]2[C@H]1O)O[C@H](C)C[C@@]3(O)CNCc1cccc(C)n1 [compound 22, 3′-(A)-3′-[(6-Methyl)-2-pyridinylmethylamino)dihydrospectinomycin Tetrahydrobromide]	> 200	6.3	6.3 to 12.5	> 200	50 to 100	> 200	> 200	≥ 200	> 200	25	25	50	50	> 200	6.3		100	100 to 200	14	10	MIC [1, 27]: > 200 µg/mL; MIC [7, 23]: 12.5 µg/mL; MIC (Moraxella catarrhalis): 3.1 µg/mL; zone of inhibition at 4 µg/disc [21]: 11 mm; MIC (Bacillus anthracis): 50 µg/mL; MIC (Listeria monocytogenes): 12.5 µg/mL
